Measurements as given in patent US20050053647A1, “Pharmaceutical product comprising the active substance diamorphine, and its use in a process for treating opiate addiction” (priority 1999, published 2005).
In brackets after ≈: the same amount, converted by molar mass.

What was measured:
heroin addicts = conditions: cited from earlier work
[1] = In vitro skin permeation from TTS, nude guinea pig skin model; format: in vitro ADME
Protocol: Diamorphine is determined as total of heroin+morphine metabolite.

[2] = Saturation solubility of diamorphine base in solvents
[3] = Rate of hydrolytic breakdown of diamorphine base in solvents (diamorphine content over time); conditions: for Diamorphine content: area percentages

In the case of `CCC(=O)C(CC(C)N(C)C)(c1ccccc1)c1ccccc1` (centres unmarked) [methadone], the “Therapy of heroin dependents compared with heroin” value (heroin addicts; even on intravenous administration, Swiss experiment) is given as “inferior to heroin”.
In the case of `CC(=O)Oc1ccc2c3c1O[C@H]1[C@@H](OC(C)=O)C=C[C@H]4[C@@H](C2)N(C)CC[C@@]341` [diamorphine base, diamorphine], the “Skin passage in relation to morphine and buprenorphine” value ([1]; TTS matrix of same base formulation and loading, citrate buffer pH=3.0 + 0,1% NaN3, T=37° C., diamorphine determined as total of heroin + morphine metabolite) was “better skin passage”, the “Skin flux in flow equilibrium (permeation rate) compared with morphine and buprenorphine” value ([1]; nude guinea pig skin, TTS of identical formulation, in some cases) was “markedly higher” and the solubility ([2]; Benzyl nicotinate, organic solvent or mixture) was 23.2 mg/mL (≈ 62.8 mM). The solubility ([2]; Benzyl nicotinate/Vitamin E 1:1, organic solvent or mixture) was 17.7 mg/mL (≈ 47.9 mM), the solubility ([2]; Dimethylisosorbide, organic solvent or mixture) was 12.8 mg/mL (≈ 34.6 mM) and the solubility ([2]; Dimethylisosorbide/Vitamin E 1:1, organic solvent or mixture) was 9.82 mg/mL (≈ 26.6 mM). It also gave a solubility ([2]; Lemon oil, oil or lipid) of 10.3 mg/mL (≈ 27.9 mM), a solubility ([2]; Lemon oil/Vitamin E 1:1, oil or lipid) of 8 mg/mL (≈ 21.7 mM) and a solubility ([2]; N-Methylpyrrolidone, organic solvent or mixture) of 32.2 mg/mL (≈ 87.2 mM). It also gave a solubility ([2]; N-Methylpyrrolidone/Vitamin E 1:1, organic solvent or mixture) of 24.8 mg/mL (≈ 67.1 mM), a solubility ([2]; Oleic acid, oil or lipid) of 22.6 mg/mL (≈ 61.2 mM) and a solubility ([2]; Oleic acid/Vitamin E 1:1, oil or lipid) of 17.2 mg/mL (≈ 46.6 mM). For the same molecule, the solubility ([2]; R-(+)-Limonene, organic solvent or mixture) was 25.1 mg/mL (≈ 67.9 mM), the solubility ([2]; R-(+)-Limonene/Vitamin E 1:1, organic solvent or mixture) was 19 mg/mL (≈ 51.4 mM) and the solubility ([2]; Tween 80, organic solvent or mixture) was 5.81 mg/mL (≈ 15.7 mM). For the same molecule, the solubility ([2]; Tween 80/Vitamin E 1:1, organic solvent or mixture) was 4.45 mg/mL (≈ 12 mM), the solubility ([2]; Vitamin E, oil or lipid) was 1.62 mg/mL (≈ 4.39 mM) and the “State of health of the heroin addicts” value (heroin addicts; state-controlled administration, intravenous or pulmonary (cigarettes), 969 heroin addicts) was “Marked improvements”. The “Effect of combinations of vitamin E with a further aprotic solvent on the rate of hydrolytic breakdown” value ([3]; combinations of vitamin E with solvent (Table 1)) was “surprisingly positive stabilizing effect”, the Diamorphine content ([3]; solvent Benzyl nicotinate/Vitamin E 1:1, t = 0.5 h) was 99.2% and the Diamorphine content ([3]; solvent Benzyl nicotinate/Vitamin E 1:1, t = 24 h) was 99.0%. The Diamorphine content ([3]; solvent Benzyl nicotinate, t = 0.5 h) was 97.8%, the Diamorphine content ([3]; solvent Benzyl nicotinate, t = 24 h) was 86.5% and the Diamorphine content ([3]; solvent Dimethylisosorbide/Vitamin E 1:1, t = 0.5 h) was 100%. It also gave a Diamorphine content ([3]; solvent Dimethylisosorbide/Vitamin E 1:1, t = 24 h) of 99.8%, a Diamorphine content ([3]; solvent Dimethylisosorbide, t = 0.5 h) of 98.5% and a Diamorphine content ([3]; solvent Dimethylisosorbide, t = 24 h) of 93.5%. The Diamorphine content ([3]; solvent Lemon oil/Vitamin E 1:1, t = 0.5 h) was 99.1%, the Diamorphine content ([3]; solvent Lemon oil/Vitamin E 1:1, t = 24 h) was 98.9% and the Diamorphine content ([3]; solvent Lemon oil, t = 0.5 h) was 93.5%. For the same molecule, the Diamorphine content ([3]; solvent Lemon oil, t = 24 h) was 80.5%, the Diamorphine content ([3]; solvent N-Methylpyrrolidone/Vitamin E 1:1, t = 0.5 h) was 99.8% and the Diamorphine content ([3]; solvent N-Methylpyrrolidone/Vitamin E 1:1, t = 24 h) was 99.7%. It also gave a Diamorphine content ([3]; solvent N-Methylpyrrolidone, t = 0.5 h) of 97.8%, a Diamorphine content ([3]; solvent N-Methylpyrrolidone, t = 24 h) of 87.8% and a Diamorphine content ([3]; solvent Oleic acid/Vitamin E 1:1, t = 0.5 h) of 99.6%. For the same molecule, the Diamorphine content ([3]; solvent Oleic acid/Vitamin E 1:1, t = 24 h) was 99.6%, the Diamorphine content ([3]; solvent Oleic acid, t = 0.5 h) was 97.4% and the Diamorphine content ([3]; solvent Oleic acid, t = 24 h) was 90.3%. The Diamorphine content ([3]; solvent R-(+)-Limonene/Vitamin E 1:1, t = 0.5 h) was 99.7%, the Diamorphine content ([3]; solvent R-(+)-Limonene/Vitamin E 1:1, t = 24 h) was 99.6% and the Diamorphine content ([3]; solvent R-(+)-Limonene, t = 0.5 h) was 96.7%. For the same molecule, the Diamorphine content ([3]; solvent R-(+)-Limonene, t = 24 h) was 87.7%, the Diamorphine content ([3]; solvent Tween 80/Vitamin E 1:1, t = 0.5 h) was 100% and the Diamorphine content ([3]; solvent Tween 80/Vitamin E 1:1, t = 24 h) was 100%. It also gave a Diamorphine content ([3]; solvent Tween 80, t = 0.5 h) of 99%, a Diamorphine content ([3]; solvent Tween 80, t = 24 h) of 93.4% and a Diamorphine content ([3]; solvent Vitamin E, t = 0.5 h) of 100%. The Diamorphine content ([3]; solvent Vitamin E, t = 24 h) was 100%.
